In patent US5844100A, “Ink compositions containing azo dyes for ink jet printing” (Ilford Imaging Switzerland GmbH, priority 1995, dated 1998):

Experiments:
[1] = Absorption maximum (λ max) in H2O; assay type: physicochemical
[2] = Dye solubility in water at 20° C., determined spectroscopically; assay type: physicochemical; details: heated at 50° C. 1 hour, cooled to 20° C., filtered
Experimental: The solubilities of the dyes according to the invention were determined as follows:
An excess of dye was heated at 50° C. in water with stirring for one hour. The mixture was then cooled down to 20° C. and filtered, and the dye content of the clear solution was determined spectroscopically.

SMILES | λ max (nm) in H2O [1] [nm] | Solubility (in g per 100 ml) [2] [g per 100 ml]
Cc1ccc(S(=O)(=O)Nc2cc(S(=O)(=O)O)cc3cc(S(=O)(=O)O)c(N=Nc4cc(Nc5nc(SCCCS(=O)(=O)O)nc(SCCCS(=O)(=O)O)n5)ccc4S(=O)(=O)O)c(O)c23)cc1 [Compound 113] | 527 | –
O=C(Nc1cc(S(=O)(=O)O)cc2cc(S(=O)(=O)O)c(N=Nc3cc(Nc4nc(SCCCS(=O)(=O)O)nc(SCCCS(=O)(=O)O)n4)ccc3S(=O)(=O)O)c(O)c12)c1ccccc1 [Compound 112] | 512 | 44
Cc1cc(Nc2nc(SCCCS(=O)(=O)O)nc(SCCCS(=O)(=O)O)n2)ccc1N=Nc1cc(S(=O)(=O)O)c2cccc(S(=O)(=O)O)c2c1 [Compound 103] | 383 | 30
O=S(=O)(O)CCCSc1nc(Nc2ccc(S(=O)(=O)O)c3cc(S(=O)(=O)O)c(N=Nc4ccc5c(S(=O)(=O)O)cccc5c4S(=O)(=O)O)c(O)c23)nc(SCCCS(=O)(=O)O)n1 [Compound 122] | 543 | –
CCCCCCNc1nc(NCCCCCC)nc(Nc2cc(S(=O)(=O)O)cc3cc(S(=O)(=O)O)c(N=Nc4ccccc4S(=O)(=O)O)c(O)c23)n1 [dye 5, reference compound] | – | 17
CC(=O)Nc1cc(Nc2nc(SCCCS(=O)(=O)O)nc(SCCCS(=O)(=O)O)n2)ccc1N=Nc1cc(S(=O)(=O)O)c2cccc(S(=O)(=O)O)c2c1 [Compound 102] | 394 | –
O=S(=O)(O)CCCSc1nc(Nc2ccc(N=Nc3c(S(=O)(=O)O)cc4cccc(NS(=O)(=O)c5ccc(Br)cc5)c4c3O)c(S(=O)(=O)O)c2)nc(SCCCS(=O)(=O)O)n1 [Compound 111] | 526 | –
COc1cc(N=Nc2c(N)ccc3cc(S(=O)(=O)O)cc(O)c23)c(C)cc1Nc1nc(NCCO)nc(Nc2cccc(S(=O)(=O)O)c2)n1 [dye 1, reference compound] | – | 11

Next, values leading:

λ max (nm) in H2O [1] [nm] | Solubility (in g per 100 ml) [2] [g per 100 ml] | SMILES
555 | – | COc1ccc(N=Nc2c(S(=O)(=O)O)cc3cc(S(=O)(=O)O)cc(Nc4nc(SCCCS(=O)(=O)O)nc(SCCCS(=O)(=O)O)n4)c3c2O)cc1S(=O)(=O)O [Compound 116]
543 | – | Cc1ccc(N=Nc2c(S(=O)(=O)O)cc3cc(S(=O)(=O)O)cc(Nc4nc(SCCCS(=O)(=O)O)nc(SCCCS(=O)(=O)O)n4)c3c2O)c(S(=O)(=O)O)c1 [Compound 115]
529 | – | Cc1cc(N=Nc2c(Nc3c(C)cccc3C)ccc3cc(S(=O)(=O)O)cc(O)c23)c(S(=O)(=O)O)cc1Nc1nc(SCCCS(=O)(=O)O)nc(SCCCS(=O)(=O)O)n1 [Compound 120]
383 | – | COc1cc(N=Nc2cccc(S(=O)(=O)O)c2)c(C)cc1Nc1nc(SCCCCS(=O)(=O)O)nc(SCCCCS(=O)(=O)O)n1 [Compound 104]
518 | 43 | Nc1ccc2cc(S(=O)(=O)O)cc(O)c2c1N=Nc1ccc(Nc2nc(SCCCS(=O)(=O)O)nc(SCCCS(=O)(=O)O)n2)cc1S(=O)(=O)O [Compound 118]
401 | 34 | COc1cc(N=Nc2cc(S(=O)(=O)O)c3cccc(S(=O)(=O)O)c3c2)c(C)cc1Nc1nc(SCCCS(=O)(=O)O)nc(SCCCS(=O)(=O)O)n1 [Compound 100]
530 | – | CCCCCC(=O)Nc1cc(S(=O)(=O)O)cc2cc(S(=O)(=O)O)c(N=Nc3cc(Nc4nc(SCCCS(=O)(=O)O)nc(SCCCS(=O)(=O)O)n4)c(OC)cc3S(=O)(=O)O)c(O)c12 [Compound 109]
535 | – | O=C(O)CCNc1ccc2cc(S(=O)(=O)O)cc(O)c2c1N=Nc1ccc(Nc2nc(SCCCS(=O)(=O)O)nc(SCCCS(=O)(=O)O)n2)cc1S(=O)(=O)O [Compound 119]
542 | – | COc1cc(S(=O)(=O)O)c(N=Nc2c(NCCC#N)ccc3cc(S(=O)(=O)O)cc(O)c23)cc1Nc1nc(SCCCS(=O)(=O)O)nc(SCCCS(=O)(=O)O)n1 [Compound 121]
